Test results as given in ChEMBL document CHEMBL1201862, “PubChem BioAssay data set” (2004).
Values belong to the molecule of their own block, whether it stands above or below them. Activity calls are given as the source filed them.

Experiments:
[1] = molecular target: Potassium voltage-gated channel subfamily KQT member 2 (Rattus norvegicus, UniProt O88943, W236L); experiment: KCNQ2 channel potentiators, dose response, mechanism study for KCNQ2 potentiator project, cell-based, automated electrophysiology (AID 2603); format: functional
Potassium voltage-gated channel subfamily KQT member 2, sequence (O88943 whole entry W236L): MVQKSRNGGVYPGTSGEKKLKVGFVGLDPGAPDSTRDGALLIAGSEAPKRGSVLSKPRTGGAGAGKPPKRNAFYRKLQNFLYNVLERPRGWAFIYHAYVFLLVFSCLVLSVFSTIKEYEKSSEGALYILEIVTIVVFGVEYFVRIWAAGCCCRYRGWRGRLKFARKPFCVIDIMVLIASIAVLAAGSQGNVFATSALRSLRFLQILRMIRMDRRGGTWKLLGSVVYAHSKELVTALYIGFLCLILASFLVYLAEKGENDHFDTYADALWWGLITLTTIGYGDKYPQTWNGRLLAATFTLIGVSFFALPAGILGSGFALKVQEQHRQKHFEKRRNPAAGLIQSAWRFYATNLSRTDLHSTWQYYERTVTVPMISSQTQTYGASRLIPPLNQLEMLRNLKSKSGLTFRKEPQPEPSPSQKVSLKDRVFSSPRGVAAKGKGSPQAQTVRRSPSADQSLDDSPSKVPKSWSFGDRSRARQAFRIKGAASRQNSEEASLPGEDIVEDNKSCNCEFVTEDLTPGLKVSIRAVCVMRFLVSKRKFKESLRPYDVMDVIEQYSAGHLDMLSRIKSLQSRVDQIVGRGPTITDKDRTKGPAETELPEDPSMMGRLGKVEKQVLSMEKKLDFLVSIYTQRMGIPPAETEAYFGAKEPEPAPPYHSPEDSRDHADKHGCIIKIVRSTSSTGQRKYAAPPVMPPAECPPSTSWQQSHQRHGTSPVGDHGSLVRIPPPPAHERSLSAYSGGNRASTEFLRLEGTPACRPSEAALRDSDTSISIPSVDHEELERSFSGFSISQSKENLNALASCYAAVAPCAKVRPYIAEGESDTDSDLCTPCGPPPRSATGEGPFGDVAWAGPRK

Melanocortin receptor 4 = Melanocortin receptor 4 (Homo sapiens, UniProt P32245); experiment: MC4R antagonist potency on cAMP, dose response, cell-based, TR-FRET, biased antagonists (AID 602298); format: functional;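 also: antagonist potency against agonist-stimulated cAMP production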
Melanocortin receptor 4, sequence (P32245 whole entry): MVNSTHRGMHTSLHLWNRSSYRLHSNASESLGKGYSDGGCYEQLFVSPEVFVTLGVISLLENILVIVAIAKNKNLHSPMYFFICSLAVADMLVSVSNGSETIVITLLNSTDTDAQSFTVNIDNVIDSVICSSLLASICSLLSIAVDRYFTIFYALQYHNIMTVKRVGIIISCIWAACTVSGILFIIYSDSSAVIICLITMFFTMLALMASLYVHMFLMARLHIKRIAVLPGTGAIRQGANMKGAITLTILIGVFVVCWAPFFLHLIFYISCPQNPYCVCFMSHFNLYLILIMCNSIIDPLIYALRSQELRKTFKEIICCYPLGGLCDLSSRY

[2] = nonselective inhibitors of cellular cAMP signaling, dose response, counter-screen for MC4R biased antagonist project, cell-based, TR-FRET cAMP detection (AID 602305); format: functional;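 also: U2OS cells stimulated with forskolin near its EC80 as the cAMP inducer; potency is for inhibition of forskolin-stimulated cAMP signaling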
[3] = inhibitors of intracellular T. cruzi replication, confirmation, NIH3T3 host cells, beta-gal luminescence (AID 2044); format: functional, cell-based;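 also: intracellular parasites grown in NIH/3T3 mouse fibroblasts as host cells; luminescent beta-galactosidase reporter signal from transgenic T. cruzi replicating inside host cells; inhibitors lower the luminescence signal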
[4] = cytotoxicity toward NIH3T3 fibroblasts, dose response, counter-screen, cell-based, ATP luminescence, mouse fibroblasts (AID 2010); format: functional;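 also: cells exposed to compound for about 90 hours before reading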
[5] = molecular target: Peroxisome proliferator-activated receptor gamma/Nuclear receptor corepressor 2 (Homo sapiens, UniProt P37231+Q9Y618); experiment: Counterscreen for NR2E3 inverse agonists: TR-FRET-based biochemical high throughput dose response assay to identify inverse agonists of the interaction between peroxisome proliferator-activated receptor gamma (PPARg) and nuclear receptor co-repressor 2 (NCOR2).; format: functional
Peroxisome proliferator-activated receptor gamma/Nuclear receptor corepressor 2, sequence (P37231 whole entry): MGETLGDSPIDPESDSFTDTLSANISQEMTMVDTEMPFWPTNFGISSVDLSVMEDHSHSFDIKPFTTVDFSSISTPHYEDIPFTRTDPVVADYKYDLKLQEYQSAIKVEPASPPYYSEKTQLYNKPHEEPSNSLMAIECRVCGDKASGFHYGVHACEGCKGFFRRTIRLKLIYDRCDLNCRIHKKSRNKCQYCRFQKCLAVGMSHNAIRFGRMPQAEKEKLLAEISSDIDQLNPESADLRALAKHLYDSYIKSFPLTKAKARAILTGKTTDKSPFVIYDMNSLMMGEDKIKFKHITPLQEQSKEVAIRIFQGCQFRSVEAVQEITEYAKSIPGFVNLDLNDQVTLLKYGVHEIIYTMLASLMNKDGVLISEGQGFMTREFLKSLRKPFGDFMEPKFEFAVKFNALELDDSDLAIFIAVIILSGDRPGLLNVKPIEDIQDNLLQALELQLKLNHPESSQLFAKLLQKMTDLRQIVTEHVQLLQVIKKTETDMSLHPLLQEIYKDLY
Peroxisome proliferator-activated receptor gamma/Nuclear receptor corepressor 2, sequence (Q9Y618 whole entry): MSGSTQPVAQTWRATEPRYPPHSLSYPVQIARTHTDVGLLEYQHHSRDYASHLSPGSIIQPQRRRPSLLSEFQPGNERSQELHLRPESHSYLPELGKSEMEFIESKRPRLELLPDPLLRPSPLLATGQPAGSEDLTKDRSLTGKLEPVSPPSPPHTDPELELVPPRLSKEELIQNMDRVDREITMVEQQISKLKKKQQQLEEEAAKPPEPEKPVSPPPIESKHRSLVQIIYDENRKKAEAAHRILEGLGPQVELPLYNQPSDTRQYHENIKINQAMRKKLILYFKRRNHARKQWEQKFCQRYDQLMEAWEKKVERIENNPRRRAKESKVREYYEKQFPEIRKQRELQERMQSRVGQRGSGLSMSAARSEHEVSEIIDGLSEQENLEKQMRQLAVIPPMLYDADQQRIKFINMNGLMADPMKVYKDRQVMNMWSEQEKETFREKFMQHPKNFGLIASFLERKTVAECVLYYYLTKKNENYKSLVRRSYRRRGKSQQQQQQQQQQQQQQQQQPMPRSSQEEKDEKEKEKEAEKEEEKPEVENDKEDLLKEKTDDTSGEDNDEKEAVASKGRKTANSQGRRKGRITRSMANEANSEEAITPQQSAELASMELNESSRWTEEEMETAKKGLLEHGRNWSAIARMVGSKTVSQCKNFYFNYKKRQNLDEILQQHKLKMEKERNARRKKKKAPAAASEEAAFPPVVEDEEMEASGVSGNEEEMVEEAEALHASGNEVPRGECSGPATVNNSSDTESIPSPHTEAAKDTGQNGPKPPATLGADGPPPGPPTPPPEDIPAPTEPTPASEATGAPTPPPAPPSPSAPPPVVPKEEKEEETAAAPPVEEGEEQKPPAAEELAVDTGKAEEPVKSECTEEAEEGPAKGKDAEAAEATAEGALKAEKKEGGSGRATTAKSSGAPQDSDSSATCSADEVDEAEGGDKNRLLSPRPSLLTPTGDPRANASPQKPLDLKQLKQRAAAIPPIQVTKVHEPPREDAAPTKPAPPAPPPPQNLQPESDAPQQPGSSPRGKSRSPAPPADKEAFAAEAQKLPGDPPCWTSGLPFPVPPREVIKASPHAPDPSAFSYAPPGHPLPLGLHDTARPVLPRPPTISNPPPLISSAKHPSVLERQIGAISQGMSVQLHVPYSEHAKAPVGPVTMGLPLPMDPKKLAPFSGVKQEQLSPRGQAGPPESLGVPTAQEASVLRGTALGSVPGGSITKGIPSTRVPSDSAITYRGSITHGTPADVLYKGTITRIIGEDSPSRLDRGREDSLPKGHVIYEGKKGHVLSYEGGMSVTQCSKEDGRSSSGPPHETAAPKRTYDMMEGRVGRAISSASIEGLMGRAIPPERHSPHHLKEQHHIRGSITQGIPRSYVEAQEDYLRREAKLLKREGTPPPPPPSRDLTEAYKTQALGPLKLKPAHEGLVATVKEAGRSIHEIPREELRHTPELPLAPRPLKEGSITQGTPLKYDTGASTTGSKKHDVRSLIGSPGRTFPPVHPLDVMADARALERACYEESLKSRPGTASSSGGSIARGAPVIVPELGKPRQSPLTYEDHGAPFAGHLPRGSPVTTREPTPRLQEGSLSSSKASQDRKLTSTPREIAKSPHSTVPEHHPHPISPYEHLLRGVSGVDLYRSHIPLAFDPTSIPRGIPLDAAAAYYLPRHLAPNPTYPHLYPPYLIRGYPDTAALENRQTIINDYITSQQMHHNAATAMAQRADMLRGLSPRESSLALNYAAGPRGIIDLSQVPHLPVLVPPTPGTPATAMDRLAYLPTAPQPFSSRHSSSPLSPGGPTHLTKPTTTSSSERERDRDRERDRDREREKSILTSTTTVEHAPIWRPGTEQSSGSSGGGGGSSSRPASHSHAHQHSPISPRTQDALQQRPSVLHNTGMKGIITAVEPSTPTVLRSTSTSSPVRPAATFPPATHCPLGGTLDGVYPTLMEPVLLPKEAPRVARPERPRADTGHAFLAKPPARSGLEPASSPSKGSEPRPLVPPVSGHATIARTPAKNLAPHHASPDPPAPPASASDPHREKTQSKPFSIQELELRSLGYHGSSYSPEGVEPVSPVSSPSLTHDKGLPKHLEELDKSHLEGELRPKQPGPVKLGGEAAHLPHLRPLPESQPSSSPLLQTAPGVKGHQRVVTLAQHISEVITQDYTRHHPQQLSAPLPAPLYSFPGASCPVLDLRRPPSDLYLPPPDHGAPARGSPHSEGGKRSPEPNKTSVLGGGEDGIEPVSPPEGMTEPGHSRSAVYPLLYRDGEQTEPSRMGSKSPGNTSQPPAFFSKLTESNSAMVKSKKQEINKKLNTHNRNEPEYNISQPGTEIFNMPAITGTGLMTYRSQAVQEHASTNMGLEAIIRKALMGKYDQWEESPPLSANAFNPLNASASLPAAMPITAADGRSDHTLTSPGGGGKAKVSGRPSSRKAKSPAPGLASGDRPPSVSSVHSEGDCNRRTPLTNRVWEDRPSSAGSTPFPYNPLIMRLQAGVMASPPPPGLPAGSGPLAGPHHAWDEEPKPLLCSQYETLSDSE

[6] = molecular target: Photoreceptor-specific nuclear receptor (Homo sapiens, UniProt Q9Y5X4); experiment: NR2E3 inverse agonists, dose response, biochemical, TR-FRET (AID 463256); format: functional
Photoreceptor-specific nuclear receptor, sequence (Q9Y5X4 whole entry): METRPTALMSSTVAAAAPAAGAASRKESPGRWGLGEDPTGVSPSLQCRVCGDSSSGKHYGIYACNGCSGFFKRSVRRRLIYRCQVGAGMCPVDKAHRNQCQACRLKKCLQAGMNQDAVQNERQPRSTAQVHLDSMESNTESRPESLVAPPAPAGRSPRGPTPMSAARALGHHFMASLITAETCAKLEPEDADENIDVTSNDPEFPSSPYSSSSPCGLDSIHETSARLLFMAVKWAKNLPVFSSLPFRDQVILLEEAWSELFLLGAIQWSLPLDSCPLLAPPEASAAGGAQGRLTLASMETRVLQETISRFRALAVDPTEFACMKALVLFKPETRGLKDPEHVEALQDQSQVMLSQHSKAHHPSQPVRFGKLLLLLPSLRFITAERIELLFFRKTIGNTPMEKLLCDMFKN

[7] = molecular target: Diphosphomevalonate decarboxylase (Streptococcus pneumoniae serotype 2 (strain D39 / NCTC 7466), UniProt Q9FD53); experiment: S. pneumoniae DPM-DC inhibition retest, confirmation, biochemical, cuvette format, coupled NADH fluorescence (AID 1028); format: functional
Diphosphomevalonate decarboxylase, sequence (Q9FD53 whole entry): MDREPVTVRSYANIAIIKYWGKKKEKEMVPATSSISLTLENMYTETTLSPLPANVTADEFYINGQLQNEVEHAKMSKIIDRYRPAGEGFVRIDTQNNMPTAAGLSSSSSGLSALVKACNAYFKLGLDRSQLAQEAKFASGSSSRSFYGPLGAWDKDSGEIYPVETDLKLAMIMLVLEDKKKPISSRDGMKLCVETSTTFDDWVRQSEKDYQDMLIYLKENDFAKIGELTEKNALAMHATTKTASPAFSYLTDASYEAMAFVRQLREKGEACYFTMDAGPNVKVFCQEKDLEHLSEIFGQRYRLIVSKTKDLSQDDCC

[8] = molecular target: T1, Tyrosine-protein phosphatase non-receptor type 7 (Homo sapiens, UniProt P35236); experiment: inhibitors of human HePTP phosphatase, […], biochemical, absorbance, leukemia target (AID 521); format: functional
T1 sequence (P35236 whole entry): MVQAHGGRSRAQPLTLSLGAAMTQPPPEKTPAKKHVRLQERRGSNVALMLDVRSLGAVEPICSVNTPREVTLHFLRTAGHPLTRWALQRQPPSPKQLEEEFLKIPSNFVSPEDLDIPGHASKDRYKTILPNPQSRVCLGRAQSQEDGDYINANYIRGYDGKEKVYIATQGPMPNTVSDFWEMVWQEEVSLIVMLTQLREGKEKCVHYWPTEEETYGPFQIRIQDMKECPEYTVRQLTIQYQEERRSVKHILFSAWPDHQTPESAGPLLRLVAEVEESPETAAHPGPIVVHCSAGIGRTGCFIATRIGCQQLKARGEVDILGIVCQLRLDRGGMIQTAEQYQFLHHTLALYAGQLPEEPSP

SMILES: COC(=O)CSc1[nH]c2ccc(F)cc2c1[N+](=O)[O-]
- EC50 [1]: 170 nM (active)
- IC50 (Melanocortin receptor 4): > 64.6 µM (inactive)
- IC50 [2]: > 64.6 µM (inactive)

SMILES: CN1CCc2c(sc3c2c(=O)n(-c2ccccc2)c2nnc(SCc4ccc(Cl)cc4)n32)C1
- EC50 [3]: < 100 nM (active)
- EC50 [4]: > 60 µM (not active)
- EC50 (cells): < 4 nM (active)

- IC50 [5]: > 39.8 µM (not active)
- IC50 [6]: > 39.8 µM (not active)
SMILES: CC(=O)c1sc(NS(=O)(=O)c2ccc(C)cc2)nc1-c1ccccc1

SMILES: O=C(NCC1CC1)c1ccc(-n2sc3ccccc3c2=O)cc1
- IC50 [7]: 11.9 µM (active)

- IC50 [8]: > 100 µM (not active)
SMILES: COCC(=O)N1CCC(n2nnc3cc(F)ccc32)CC1
